Results taken from patent US20120018333A1, “Reducing Side Effects of Tramadol” (priority 2007, published 2012).
Structures can show the parent of a compound that is named as a salt.

What was measured:
[1] = placebo controlled, dose-ranging clinical study of oral tramadol HCl in men with severe premature ejaculation; type: in vivo, human; details: percentages based on total drug exposures for the three doses, 2 to 5 hours before intercourse
Experimental: See U.S. Pat. No. 6,974,839, Safarinejad et al., J. Clin. Psychopharmacol., 26(1):27-31 (February 2006) and Salem et al., J. Sex. Med., 5(1):188-193 (January 2008). A placebo controlled, dose-ranging clinical study that enrolled more than 60 male volunteers with severe premature ejaculation who self administered three different doses of oral tramadol HCl 2 to 5 hours before sexual intercourse was performed on behalf of DMI BioSciences, Inc., Aurora, Colo. […] However, the patient reported outcome responses in this study also reported the following previously unreported mild or moderate adverse events (percentages based on total drug exposures for the three doses): erectile dysfunction (8%-14%), anorgasmia (3%-7%), and penile hypoesthesia (4%-5%). Less common unexpected, drug-related mild or moderate adverse events were decreased libido (<1%-2%) and decreased orgasmic sensation (0-<1%). These mild or moderate adverse events related to sexual activity were generally dose-dependent and occurred more frequently in men 40 years of age and older.

[2] = volunteer study of adverse events: tramadol HCl alone or combined with sildenafil citrate and naltrexone HCl before sexual intercourse
Experimental: In particular, three healthy, heterosexual male subjects (mean age 57) signed informed consents and volunteered to self administer oral tramadol HCl 100 mg 2 to 5 hours before sexual intercourse and to record any adverse events. At other times, these volunteers self administered oral tramadol HCl 25 to 100 mg combined with oral sildenafil citrate 50 mg or oral sildenafil citrate 50 mg plus oral naltrexone HCl 2.5 to 10 mg 2 to 5 hours before sexual intercourse and recorded any adverse effects.

[3] = used for analgesia; cited from earlier work
[4] = tramadol HCl 100 mg alone, % of total drug exposures, three volunteers

COc1cccc([C@]2(O)CCCC[C@H]2CN(C)C)c1 (racemic) [tramadol HCl, (±) cis-2-[(dimethylamino)methyl]-1-(3-methoxyphenyl)-cyclohexanol hydrochloride]
anorgasmia (mild or moderate adverse event) [1]: 3%-7%
decreased libido (mild or moderate adverse event) [1]: <1%-2%
erectile dysfunction (mild or moderate adverse event) [1]: 8%-14%
penile hypoesthesia (mild or moderate adverse event) [1]: 4%-5%
serious adverse events ([2]; oral, 2 to 5 hours before sexual intercourse): No serious adverse events occurred
anorgasmia [2, 4]: 29%
constipation [2, 4]: 71%
decreased libido [2, 4]: 43%
decreased orgasmic sensation [2, 4]: 57%
dizziness [2, 4]: 14%
dry mouth [2, 4]: 57%
erectile dysfunction [2, 4]: 43%
fatigue [2, 4]: 14%
insomnia [2, 4]: 71%
itching [2, 4]: 57%
nasal congestion [2, 4]: 57%
nausea [2, 4]: 14%
penile hypoesthesia [2, 4]: 43%
restlessness [2, 4]: 29%
mild or moderate adverse events, 100 mg dose compared with 25 mg ([2]; tramadol HCl alone, oral): substantially more

COc1cccc(C2(O)CCCCC2CN(C)C)c1 (stereo not shown) [Tramadol, 2-[(dimethylamino)methyl]-1-(3-methoxyphenyl)-cyclohexanol]
incidence of reported side effects (dizziness, nausea, constipation, headache, somnolence, vomiting, pruritis, CNS stimulation, asthenia, sweating, dyspepsia, dry mouth, diarrhea) [3]: ≥ 5%

O=C1CC[C@@]2(O)[C@H]3Cc4ccc(O)c5c4[C@@]2(CCN3CC2CC2)[C@H]1O5 [naltrexone]
effectiveness of tramadol in delaying ejaculation ([2]; naltrexone 2.5 mg to 10 mg given with tramadol): did not reduce
